Measurements taken from ChEMBL document CHEMBL2396526, “Chromenylchalcones showing cytotoxicity on human colon cancer cell lines and in silico docking with aurora kinases” (Bioorg Med Chem, 2013).
The source made the active and inactive calls. No cut-off for these calls is given here.

What was measured:
[1] = test system: HCT-116; test: Induction of apoptosis in human HCT116 cells assessed as DNA content at G1 phase at 20 uM after 24 hrs by annexin V-FITC/propidium iodide staining-based flow cytometric analysis (reference value: 8%); format: functional
[2] = test system: HCT-116; test: Induction of apoptosis in human HCT116 cells assessed as dead cells at 20 uM after 24 hrs by annexin V-FITC/propidium iodide staining-based flow cytometric analysis (reference value: 2%); format: functional
[3] = organism: Homo sapiens; test: Inhibition of human Rsk
[4] = target: Tyrosine-protein kinase Lck (Homo sapiens) (UniProt P06239); test: Inhibition of human LCK
Tyrosine-protein kinase Lck (Homo sapiens), sequence (P06239 2-509 limits assumed): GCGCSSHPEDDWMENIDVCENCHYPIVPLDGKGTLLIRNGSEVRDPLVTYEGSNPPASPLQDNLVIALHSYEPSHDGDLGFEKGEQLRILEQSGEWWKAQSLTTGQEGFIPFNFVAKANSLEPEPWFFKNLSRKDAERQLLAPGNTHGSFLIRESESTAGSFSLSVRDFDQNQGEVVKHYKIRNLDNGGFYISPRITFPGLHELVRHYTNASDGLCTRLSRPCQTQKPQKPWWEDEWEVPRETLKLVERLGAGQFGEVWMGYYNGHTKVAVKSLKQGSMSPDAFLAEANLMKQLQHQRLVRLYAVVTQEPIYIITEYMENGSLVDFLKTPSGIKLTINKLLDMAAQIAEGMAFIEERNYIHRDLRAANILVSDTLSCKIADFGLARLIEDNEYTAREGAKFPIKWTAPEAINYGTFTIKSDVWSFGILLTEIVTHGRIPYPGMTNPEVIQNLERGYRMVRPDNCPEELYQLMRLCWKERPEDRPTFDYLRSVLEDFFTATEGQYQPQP

[5] = target: T1, Interleukin-1 receptor-associated kinase 4 (Homo sapiens) (UniProt Q9NWZ3); test: Inhibition of human IRAK4
T1 sequence (whole entry): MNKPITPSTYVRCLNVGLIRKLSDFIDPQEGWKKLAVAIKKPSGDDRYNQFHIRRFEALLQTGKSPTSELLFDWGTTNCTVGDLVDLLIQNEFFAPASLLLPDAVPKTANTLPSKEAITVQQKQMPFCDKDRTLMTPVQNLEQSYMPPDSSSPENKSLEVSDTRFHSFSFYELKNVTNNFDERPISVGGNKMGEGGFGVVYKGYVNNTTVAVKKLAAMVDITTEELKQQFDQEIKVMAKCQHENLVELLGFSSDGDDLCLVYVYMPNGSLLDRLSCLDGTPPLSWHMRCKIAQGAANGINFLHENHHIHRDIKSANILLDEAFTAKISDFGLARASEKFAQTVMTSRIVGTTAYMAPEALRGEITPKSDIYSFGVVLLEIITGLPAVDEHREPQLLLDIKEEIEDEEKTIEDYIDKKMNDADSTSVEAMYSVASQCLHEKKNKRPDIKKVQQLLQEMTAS

[6] = target: T2, Discoidin domain-containing receptor 2 (Homo sapiens) (UniProt Q16832); test: Inhibition of human DDR2
T2 sequence (whole entry): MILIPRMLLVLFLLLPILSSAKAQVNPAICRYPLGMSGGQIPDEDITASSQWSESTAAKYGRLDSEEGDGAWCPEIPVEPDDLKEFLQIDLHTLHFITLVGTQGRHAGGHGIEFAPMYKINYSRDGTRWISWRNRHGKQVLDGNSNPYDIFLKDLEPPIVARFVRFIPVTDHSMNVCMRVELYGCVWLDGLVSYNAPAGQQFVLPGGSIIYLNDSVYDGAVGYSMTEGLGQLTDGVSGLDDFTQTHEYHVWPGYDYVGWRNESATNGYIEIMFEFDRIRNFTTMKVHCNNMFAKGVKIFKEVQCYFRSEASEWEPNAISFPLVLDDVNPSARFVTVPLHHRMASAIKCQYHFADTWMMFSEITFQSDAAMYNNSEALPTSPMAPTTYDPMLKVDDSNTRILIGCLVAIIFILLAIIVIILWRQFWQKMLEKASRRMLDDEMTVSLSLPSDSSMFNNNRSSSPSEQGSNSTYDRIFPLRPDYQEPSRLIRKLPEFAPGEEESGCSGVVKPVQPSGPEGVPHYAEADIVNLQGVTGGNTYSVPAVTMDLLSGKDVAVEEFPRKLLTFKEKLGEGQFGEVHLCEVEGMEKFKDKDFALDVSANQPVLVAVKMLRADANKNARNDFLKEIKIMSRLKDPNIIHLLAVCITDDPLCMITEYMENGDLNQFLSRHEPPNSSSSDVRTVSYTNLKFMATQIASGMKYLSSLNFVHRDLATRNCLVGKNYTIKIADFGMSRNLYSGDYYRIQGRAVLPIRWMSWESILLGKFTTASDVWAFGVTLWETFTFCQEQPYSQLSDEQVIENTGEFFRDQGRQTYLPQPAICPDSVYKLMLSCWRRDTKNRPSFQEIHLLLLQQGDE

[7] = target: T3, Serine/threonine-protein kinase Chk1 (Homo sapiens) (UniProt O14757); test: Inhibition of human CHK1
T3 sequence (whole entry): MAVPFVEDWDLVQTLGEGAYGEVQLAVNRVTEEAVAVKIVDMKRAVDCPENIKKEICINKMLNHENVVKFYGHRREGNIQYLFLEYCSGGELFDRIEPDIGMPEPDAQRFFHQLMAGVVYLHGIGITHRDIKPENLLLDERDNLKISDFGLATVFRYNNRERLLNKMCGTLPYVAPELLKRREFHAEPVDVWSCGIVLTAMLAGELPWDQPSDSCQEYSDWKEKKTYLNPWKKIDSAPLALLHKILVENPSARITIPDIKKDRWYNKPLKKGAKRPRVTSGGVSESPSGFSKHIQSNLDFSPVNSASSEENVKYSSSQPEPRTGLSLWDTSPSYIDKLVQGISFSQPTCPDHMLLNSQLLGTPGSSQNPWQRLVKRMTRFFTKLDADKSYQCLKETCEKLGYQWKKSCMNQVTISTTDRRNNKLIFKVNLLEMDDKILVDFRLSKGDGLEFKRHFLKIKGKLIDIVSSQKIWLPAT

[8] = target: RAF proto-oncogene serine/threonine-protein kinase (Homo sapiens) (UniProt P04049); test: Inhibition of human c-RAF
RAF proto-oncogene serine/threonine-protein kinase (Homo sapiens), sequence (P04049 whole entry): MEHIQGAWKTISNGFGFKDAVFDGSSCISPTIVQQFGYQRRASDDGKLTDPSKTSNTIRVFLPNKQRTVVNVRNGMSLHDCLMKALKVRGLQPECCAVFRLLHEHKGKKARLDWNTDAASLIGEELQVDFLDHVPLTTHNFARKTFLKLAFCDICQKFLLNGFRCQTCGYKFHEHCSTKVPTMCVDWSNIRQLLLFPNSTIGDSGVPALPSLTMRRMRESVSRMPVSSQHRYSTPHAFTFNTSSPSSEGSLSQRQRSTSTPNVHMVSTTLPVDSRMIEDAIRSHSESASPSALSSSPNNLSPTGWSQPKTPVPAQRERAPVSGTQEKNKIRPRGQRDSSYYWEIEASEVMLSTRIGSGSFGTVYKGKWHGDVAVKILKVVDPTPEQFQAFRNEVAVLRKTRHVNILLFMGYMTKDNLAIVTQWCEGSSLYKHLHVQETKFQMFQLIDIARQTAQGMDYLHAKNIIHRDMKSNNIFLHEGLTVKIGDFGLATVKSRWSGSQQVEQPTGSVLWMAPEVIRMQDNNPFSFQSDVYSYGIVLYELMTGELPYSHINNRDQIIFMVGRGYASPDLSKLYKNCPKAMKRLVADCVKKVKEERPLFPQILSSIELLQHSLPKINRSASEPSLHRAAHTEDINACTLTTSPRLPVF

[9] = test system: HCT-116; test: Induction of apoptosis in human HCT116 cells assessed as caspase-7 cleavage at 20 uM by Western blot analysis; format: functional, cell-based; conditions: TDE = time-dependent effect
[10] = test system: HCT-116; test: Cell cycle arrest in human HCT116 cells assessed as accumulation at G2/M phase at 20 uM after 48 hrs by propidium iodide staining-based flow cytometric analysis (reference value: 2.9%); format: functional
[11] = test system: HCT-116; test: Cell cycle arrest in human HCT116 cells assessed as accumulation at S phase at 20 uM after 24 hrs by propidium iodide staining-based flow cytometric analysis (reference value: 2.9%); format: functional
[12] = test system: HCT-116; test: Cell cycle arrest in human HCT116 cells assessed as accumulation at sub-G1 phase at 20 uM after 24 hrs by propidium iodide staining-based flow cytometric analysis (reference value: 2.9%); format: functional
[13] = test system: HCT-116; test: Cytotoxicity against human HCT116 cells assessed as decrease in cell viability at > 20 uM after 24 hrs by CCK8 assay; format: functional, cell-based
[14] = test system: HCT-116; test: Cytotoxicity against human HCT116 cells assessed as cell survival at 0.5 to 5 uM after 7 days by crystal violet staining assay; format: functional, cell-based; conditions: HCT-116, 168 h
[15] = target: Epidermal growth factor receptor (Homo sapiens) (UniProt P00533); test: Inhibition of human EGFR
Epidermal growth factor receptor (Homo sapiens), sequence (P00533 whole entry): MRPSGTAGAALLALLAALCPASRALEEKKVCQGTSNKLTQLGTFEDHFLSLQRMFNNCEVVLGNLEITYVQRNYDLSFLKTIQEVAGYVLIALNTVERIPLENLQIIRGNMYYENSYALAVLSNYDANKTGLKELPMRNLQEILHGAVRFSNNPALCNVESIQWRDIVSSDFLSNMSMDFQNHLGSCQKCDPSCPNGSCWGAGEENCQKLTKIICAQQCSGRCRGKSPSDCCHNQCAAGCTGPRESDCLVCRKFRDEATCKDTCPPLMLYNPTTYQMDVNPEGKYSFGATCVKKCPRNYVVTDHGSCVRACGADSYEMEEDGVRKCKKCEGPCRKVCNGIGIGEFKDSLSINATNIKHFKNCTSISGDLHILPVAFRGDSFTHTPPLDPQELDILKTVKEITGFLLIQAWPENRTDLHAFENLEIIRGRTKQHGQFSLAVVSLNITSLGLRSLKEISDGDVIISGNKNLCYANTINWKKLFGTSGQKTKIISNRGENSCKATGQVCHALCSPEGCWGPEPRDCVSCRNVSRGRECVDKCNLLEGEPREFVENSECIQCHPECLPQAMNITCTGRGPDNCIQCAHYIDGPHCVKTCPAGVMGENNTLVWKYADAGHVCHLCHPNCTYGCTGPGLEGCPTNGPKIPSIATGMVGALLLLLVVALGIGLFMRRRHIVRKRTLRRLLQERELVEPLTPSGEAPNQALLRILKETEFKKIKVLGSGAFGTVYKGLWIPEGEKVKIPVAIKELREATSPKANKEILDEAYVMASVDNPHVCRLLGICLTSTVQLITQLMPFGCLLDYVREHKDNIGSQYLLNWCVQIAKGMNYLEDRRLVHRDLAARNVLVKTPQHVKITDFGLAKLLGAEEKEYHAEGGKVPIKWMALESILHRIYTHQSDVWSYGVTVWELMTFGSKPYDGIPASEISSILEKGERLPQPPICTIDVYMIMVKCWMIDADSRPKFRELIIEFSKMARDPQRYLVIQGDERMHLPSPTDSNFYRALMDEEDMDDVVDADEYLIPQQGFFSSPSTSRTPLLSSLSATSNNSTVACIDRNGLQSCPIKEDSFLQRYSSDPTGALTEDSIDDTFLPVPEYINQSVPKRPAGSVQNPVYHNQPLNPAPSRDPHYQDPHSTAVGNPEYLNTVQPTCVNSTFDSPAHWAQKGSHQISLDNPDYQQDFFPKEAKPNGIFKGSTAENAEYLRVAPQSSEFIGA

Q: Which Activity [1] does the source give for `COc1ccc2c(c1)C=C(C(=O)/C=C/c1c(OC)cc(OC)cc1OC)CO2` here?
A: The Activity was 99%.

Q: What about the Activity [2] of the same molecule?
A: The Activity was 0%.

Q: And the inhibition [3]?
A: The inhibition was “inactive”.

Q: What about the inhibition [4] of the same molecule?
A: Its inhibition is “inactive”.

Q: What about the inhibition [5] of the same molecule?
A: The inhibition was “inactive”.

Q: And the inhibition [6]?
A: The inhibition was “inactive”.

Q: And the inhibition [7]?
A: Its inhibition is “inactive”.

Q: What about the inhibition [8] of the same molecule?
A: Its inhibition is “inactive”.

Q: What about the Activity [9] of the same molecule?
A: Its Activity is “tde”.

Q: And the Activity [10]?
A: Its Activity is 8.4%.

Q: What about the Activity [11] of the same molecule?
A: The Activity was 13.6%.

Q: And the Activity [12]?
A: The Activity was 35.3%.

Q: And the Activity [13]?
A: Its Activity is “Active”.

Q: And the IC50 [14]?
A: Its IC50 is 96.7 nM.

Q: And the inhibition [15]?
A: The inhibition was “inactive”.
